Patent US11312723B2, “Pyranopyrazole and pyrazolopyridine immunomodulators for treatment of autoimmune diseases” (The Rockefeller University, priority 2017, dated 2022)

Key:
[1] = target: Human FXIIa (Homo sapiens (Human), UniProt P00748); experiment: Factor XIIa (FXIIa) inhibitory activity, chromogenic substrate (Pefachrome XIIa) cleavage; type: biochemical; conditions: 10 min pre-incubation, Pefachrome XIIa 400 μM
[2] = target: Human alpha-thrombin (Homo sapiens (Human), UniProt P00734); experiment: Thrombin counterscreen for selectivity, fluorogenic substrate cleavage; type: biochemical; conditions: 10 min pre-incubation, Boc-Val-Pro-Arg-AMC 20 μM
Procedure: Counterscreens for Selectivity:
Thrombin. In a 96-well white opaque plate, 80 μl of assay buffer was added to each well. Test compounds were added, and serially diluted as above, to generate a concentration range of approximately 1-100 μM. Human alpha-thrombin (Enzyme Research Labs) was diluted in assay buffer to a final concentration of 12.5 nM. 80 μl of this enzyme solution was added to the assay wells. The enzyme/compound mixtures were incubated for 10 minutes at room temperature. Fluorogenic substrate (Boc-Val-Pro-Arg-7-amido-4-methylcoumarin; Sigma) was added to assay wells at a final concentration of 20 μM. The assay plate was spun for 1 minute at 1500 g and then read at 37° C. in a SpectraMax M2 plate reader (λex=380 nm and λem=460 nm). Activity was quantified as the rate of change in fluorescence, which corresponds to the rate of substrate cleavage. IC50 values were determined as the concentration of inhibitor that produced 50% of the rate of change of control wells without any inhibitor. For compounds with activity <1 μM, the assay was repeated with a lower concentration range, typically from 10-1000 nM.

Chain of Human FXIIa (P00748 373-615): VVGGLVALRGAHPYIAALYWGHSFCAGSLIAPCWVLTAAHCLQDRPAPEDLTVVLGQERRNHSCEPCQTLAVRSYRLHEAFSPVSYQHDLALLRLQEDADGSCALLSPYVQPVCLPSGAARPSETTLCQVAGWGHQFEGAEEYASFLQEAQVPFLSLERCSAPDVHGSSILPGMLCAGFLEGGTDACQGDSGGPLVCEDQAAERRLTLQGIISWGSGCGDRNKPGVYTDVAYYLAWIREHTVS
Chain of Human FXIIa (P00748 20-372 partner): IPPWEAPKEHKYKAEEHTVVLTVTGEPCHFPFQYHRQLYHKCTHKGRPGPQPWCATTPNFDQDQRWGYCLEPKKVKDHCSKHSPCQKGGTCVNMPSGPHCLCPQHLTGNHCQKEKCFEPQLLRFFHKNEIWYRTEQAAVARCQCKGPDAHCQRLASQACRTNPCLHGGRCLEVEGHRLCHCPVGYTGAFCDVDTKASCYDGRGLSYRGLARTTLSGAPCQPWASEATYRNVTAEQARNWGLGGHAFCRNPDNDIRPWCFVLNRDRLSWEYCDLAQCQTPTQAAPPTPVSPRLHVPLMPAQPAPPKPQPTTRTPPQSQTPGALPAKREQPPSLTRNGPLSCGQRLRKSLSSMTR

IC50 [1] [nM]	IC50 [2] [nM]	SMILES
80	28000	CS(=O)(=O)N1CCc2c(nn(C(=O)[C@H]3CCNc4ccccc43)c2N)C1 (single isomer, unassigned) [Example 135, (S*)-(3-amino-6-(methylsulfonyl)-4,5,6,7-tetrahydro-pyrazolo[3,4-c]pyridin-2-yl)(1,2,3,4-tetrahydro-quinolin-4-yl)methanone]
70	> 90000	Nc1c2c(nn1C(=O)[C@H]1CCNc3ccc(F)cc31)CNCC2 (single isomer, unassigned) [Example 146, (S*)-(3-amino-4,5,6,7-tetrahydro-pyrazolo[3,4-c]pyridin-2-yl)(6-fluoro-1,2,3,4-tetrahydro-quinolin-4-yl)methanone]
30	> 75000	CCN1CCc2c(nn(C(=O)[C@H]3CCNc4ccc(F)cc43)c2N)C1 (single isomer, unassigned) [Example 165, (S*)-(3-amino-6-ethyl-4,5,6,7-tetrahydro-pyrazolo[3,4-c]pyridin-2-yl)(6-fluoro-1,2,3,4-tetrahydro-quinolin-4-yl)methanone]
10	> 90000	CCN1CCc2c(nn(C(=O)[C@H]3CCNc4c(C)cc(F)cc43)c2N)C1 (single isomer, unassigned) [Example 170, (S*)-(3-amino-6-ethyl-4,5,6,7-tetrahydro-pyrazolo[3,4-c]pyridin-2-yl)(6-fluoro-8-methyl-1,2,3,4-tetrahydro-quinolin-4-yl)methanone]
20	> 100000	CCN1CCc2c(nn(C(=O)[C@H]3CCNc4c(C)cccc43)c2N)C1 (single isomer, unassigned) [Example 173, (S*)-(3-amino-6-ethyl-4,5,6,7-tetrahydro-pyrazolo[3,4-c]pyridin-2-yl)(8-methyl-1,2,3,4-tetrahydroquinolin-4-yl)methanone]
100	> 90000	Cc1cccc2c1NCC[C@@H]2C(=O)n1nc2c(c1N)CCNC2 (single isomer, unassigned) [Example 176, (S*)-(3-amino-4,5,6,7-tetrahydro-pyrazolo[3,4-c]pyridin-2-yl)(8-methyl-1,2,3,4-tetrahydro-quinolin-4-yl)methanone]
80	95000	Nc1c2c(nn1C(=O)[C@H]1CCNc3ccc(F)cc31)COCC2 (single isomer, unassigned) [Example 196, (S*)-(3-amino-4,5-dihydropyrano[3,4-c]pyrazol-2(7H)-yl)(6-fluoro-1,2,3,4-tetrahydro-quinolin-4-yl)methanone]
90	> 150000	Cc1cccc2c1NCC[C@@H]2C(=O)n1nc2c(c1N)CCOC2 (single isomer, unassigned) [Example 198, (S*)-(3-amino-4,5-dihydropyrano[3,4-c]pyrazol-2(7H)-yl)(8-methyl-1,2,3,4-tetrahydro-quinolin-4-yl)methanone]
350	> 35000	CN1CCc2nn(C(=O)C3CCCc4[nH]c(Cl)cc43)c(N)c2C1 (stereo not drawn) [Example 3, (3-amino-5-methyl-4,5,6,7-tetrahydropyrazolo[4,3-c]pyridin-2-yl)(2-chloro-4,5,6,7-tetrahydro-1H-indol-4-yl)methanone]
300	> 25000	CCc1cc2c([nH]1)CCCC2C(=O)n1nc2c(c1N)CN(C(=O)OCc1ccccc1)CC2 (stereo not drawn) [Example 4, Benzyl 3-amino-2-(2-ethyl-4,5,6,7-tetrahydro-1H-indole-4-carbonyl)-6,7-dihydro-2H-pyrazolo[4,3-c]pyridine-5(4H)-carboxylate]
250	> 50000	CCc1cc2c([nH]1)CCCC2C(=O)n1nc2c(c1N)CNCC2 (stereo not drawn) [Example 6, (3-amino-4,5,6,7-tetrahydropyrazolo[4,3-c]pyridin-2-yl)(2-ethyl-4,5,6,7-tetrahydro-1H-indol-4-yl)methanone]
70	> 25000	Cc1cc2c(C(=O)n3nc4c(c3N)CCN(C(=O)OC(C)(C)C)C4)cccc2[nH]1 [Example 7, Tert-butyl 3-amino-2-(2-methyl-1H-indole-4-carbonyl)-4,5-dihydro-2H-pyrazolo[3,4-c]pyridine-6(7H)-carboxylate]
300	> 55000	Cc1ccc2c(c1)C(C(=O)n1nc3c(c1N)CCN(S(C)(=O)=O)C3)CCN2 (stereo not drawn) [Example 12, (3-amino-6-(methylsulfonyl)-4,5,6,7-tetrahydropyrazolo[3,4-c]pyridin-2-yl)(6-methyl-1,2,3,4-tetrahydroquinolin-4-yl)methanone]
40	20000	CS(=O)(=O)N1CCc2c(nn(C(=O)C3CCNc4ccc(Cl)cc43)c2N)C1 (stereo not drawn) [Example 14, (3-amino-6-(methylsulfonyl)-4,5,6,7-tetrahydropyrazolo[3,4-c]pyridin-2-yl)(6-chloro-1,2,3,4-tetrahydroquinolin-4-yl)methanone]
> 65000	> 70000	CS(=O)(=O)N1CCc2c(N)nn(C(=O)C3CCNc4ccc(Cl)cc43)c2C1 (stereo not drawn) [Example 15, (3-amino-6-(methylsulfonyl)-4,5,6,7-tetrahydropyrazolo[3,4-c]pyridin-1-yl)(6-chloro-1,2,3,4-tetrahydroquinolin-4-yl)methanone]
150	> 40000	CCN1CCc2c(nn(C(=O)C3CCNc4ccccc43)c2N)C1 (stereo not drawn) [Example 20, (3-amino-6-ethyl-4,5,6,7-tetrahydropyrazolo[3,4-c]pyridin-2-yl)(1,2,3,4-tetrahydroquinolin-4-yl)methanone]
1500	> 50000	CCN1CCc2c(N)nn(C(=O)C3CCNc4ccccc43)c2C1 (stereo not drawn) [Example 21, (3-amino-6-ethyl-4,5,6,7-tetrahydropyrazolo[3,4-c]pyridin-1-yl)(1,2,3,4-tetrahydroquinolin-4-yl)methanone]
100	25000	CS(=O)(=O)N1CCc2c(nn(C(=O)C3CCNc4ccc(C(F)(F)F)cc43)c2N)C1 (stereo not drawn) [Example 24, (3-amino-6-(methylsulfonyl)-4,5,6,7-tetrahydropyrazolo[3,4-c]pyridin-2-yl)(6-(trifluoromethyl)-1,2,3,4-tetrahydroquinolin-4-yl)methanone]
40000	> 70000	CS(=O)(=O)N1CCc2c(N)nn(C(=O)C3CCNc4ccc(C(F)(F)F)cc43)c2C1 (stereo not drawn) [Example 25, (3-amino-6-(methylsulfonyl)-4,5,6,7-tetrahydropyrazolo[3,4-c]pyridin-1-yl)(6-(trifluoromethyl)-1,2,3,4-tetrahydroquinolin-4-yl)methanone]
150	4500	Cn1cc2c(c1)C(C(=O)n1nc3c(c1N)CCN(S(C)(=O)=O)C3)CCC2 (stereo not drawn) [Example 26, (3-amino-6-(methylsulfonyl)-4,5,6,7-tetrahydropyrazolo[3,4-c]pyridin-2-yl)(2-methyl-4,5,6,7-tetrahydro-2H-isoindol-4-yl)methanone]
160	> 35000	Nc1c2c(nn1C(=O)C1CCNc3ccc(F)cc31)CN(c1ccccc1)CC2 (stereo not drawn) [Example 28, (3-amino-6-phenyl-4,5,6,7-tetrahydropyrazolo[3,4-c]pyridin-2-yl)(6-fluoro-1,2,3,4-tetrahydroquinolin-4-yl)methanone]
50	22000	CCc1ccc2c(c1)C(C(=O)n1nc3c(c1N)CCN(S(C)(=O)=O)C3)CCN2 (stereo not drawn) [Example 30, (3-amino-6-(methylsulfonyl)-4,5,6,7-tetrahydropyrazolo[3,4-c]pyridin-2-yl)(6-ethyl-1,2,3,4-tetrahydroquinolin-4-yl)methanone]
40	23000	Cc1cccc2c1NCCC2C(=O)n1nc2c(c1N)CCN(S(C)(=O)=O)C2 (stereo not drawn) [Example 34, (3-amino-6-(methylsulfonyl)-4,5,6,7-tetrahydropyrazolo[3,4-c]pyridine-2-yl)(8-methyl-1,2,3,4-tetrahydroquinolin-4-yl)methanone]
100	25000	CS(=O)(=O)N1CCc2c(nn(C(=O)C3CCNc4c(F)cccc43)c2N)C1 (stereo not drawn) [Example 37, (3-amino-6-(methylsulfonyl)-4,5,6,7-tetrahydropyrazolo[3,4-c]pyridin-2-yl)(8-fluoro-1,2,3,4-tetrahydroquinolin-4-yl)methanone]
150	45000	CC1(C)CC(C(=O)n2nc3c(c2N)CCN(S(C)(=O)=O)C3)c2ccccc2N1 (stereo not drawn) [Example 39, (3-amino-6-(methylsulfonyl)-4,5,6,7-tetrahydropyrazolo[3,4-c]pyridin-2-yl)(2,2-dimethyl-1,2,3,4-tetrahydroquinolin-4-yl)methanone]
1700	4400	CS(=O)(=O)N1CCc2c(nn(C(=O)C3CCNc4ncccc43)c2N)C1 (stereo not drawn) [Example 41, (3-amino-6-(methylsulfonyl)-4,5,6,7-tetrahydropyrazolo[3,4-c]pyridin-2-yl)(1,2,3,4-tetrahydro-1,8-naphthyridin-4-yl)methanone]
2200	45000	CC(C)c1ccc2c(c1)C(C(=O)n1nc3c(c1N)CCN(S(C)(=O)=O)C3)CCN2 (stereo not drawn) [Example 45, (3-amino-6-(methylsulfonyl)-4,5,6,7-tetrahydropyrazolo[3,4-c]pyridin-2-yl)(6-isopropyl-1,2,3,4-tetrahydroquinolin-4-yl)methanone]
